Experimental data published in paper PMC10545747, “Development of cyclopeptide inhibitors of cGAS targeting protein-DNA interaction and phase separation” (Nature Communications, 2023).
“And” between values parts separate entries of the source, which are not always exact repeats. Equal entries are not always repeated. Square brackets hold non-standard residues; d marks the D form. Peptide text beside a SMILES is read from it.

Experiments:
[1] = system: THP1 cells stimulated with poly (I: C) (TLR3 and RIG-I/MDA-5 pathways); assay: qPCR of IFNB1 mRNA in THP1 cells stimulated by poly (I: C); assay type: cell-based, human
From the text: We next evaluated the inhibitory effect of XQ2 against cGAS in murine fibroblast L929 cells, macrophage RAW264.7 cells and primary bone marrow-derived macrophages (BMDMs) from C57BL/6 mice.
(§1) The indicated cells were stimulated with either ISD (Sangon Biotech), HSV-1 (Provided by Dr. Zhengfan Jiang), HSV60mer (Sangon Biotech), SATE-cddA[70], 2’3’-cGAMP (Invivogen, Cat# tlrl-nacga23-1), ADU-S100 (MedChemExpress, Cat# HY-12885A) or Poly(I:C) (Invivogen, Cat# tlrl-pic) after XQ2 or XQ2B treatment. Total RNA was isolated from indicated cells that incubated with the drugs for indicated time or mice tissues by using NucleoZOL reagent (MACHEREY-NAGEL) according to the manufacturer’s instructions. The quantifications of mRNA levels were carried out by real-time PCR using a PerfectStart® Uni RT&qPCR Kit (TransGen Biotech) on the QuantStudio 5 qPCR machine (Applied Biosystems). Samples were carried out in triplicate and the target CT values were normalized to GAPDH CT values. Primers of qPCR used in this study can be found in Supplementary Table S2.

primary human PBMCs = assay: qPCR of IFNB1 and IL6 mRNA in ISD-stimulated PBMCs; assay type: cell-based; parameters: key to IFNB1 mRNA, qPCR, Fig. 2c / IL6 mRNA, qPCR, Fig. 2c / IFNB1 mRNA (Fig. S7f) / IL6 mRNA (Fig. S7f): relative mRNA level, target CT normalized to GAPDH CT
Method: as §1

[2] = system: macrophage RAW264.7 cells; assay: qPCR of Ifnb1/Cxcl10/Il6 mRNA in RAW264.7 cells (ISD or HSV-1); assay type: cell-based, mouse; parameters: key to Ifnb1 mRNA (Fig. S2c) / Cxcl10 mRNA (Fig. S2c) / Ifnb1 mRNA (Fig. S2d) / Cxcl10 mRNA (Fig. S2d) / Ifnb1 mRNA (Fig. S7g) / Cxcl10 mRNA (Fig. S7g) / Il6 mRNA (Fig. S7g): mRNA level normalized to GAPDH (relative expression)
Method: as §1, with “S2. […]” for “S2.”
(c) L929, p = 0.0005 (Ifnb1),
BMDMs, p = 0.0001 (Ifnb1), p < 0.0001 (Cxcl10).
representative of three independent experiments in (a-g). (Data are presented as mean ± SD, n = 3 independent
Source data are provided as a Source Data file.

in vitro = conditions: human, THP1 cells, Cell viability (Fig. S7a)
Method: (§2) Cell viability was measured by cell counting kit-8 (TargetMol) according to the manufacturer’s instructions.
(§3) Supplementary Fig. 2. […]
(§4) (e-g) THP1 cells (e), L929 cells (f) and RAW264.7 cells (g) were exposed to the indicated doses of XQ2 for 48h, the cell viability was measured by CCK8 assay. Data are representative of three independent experiments in (a-g). (Data are presented as mean ± SD, n = 3 independent samples in (a-g), **p < 0.01, ***p < 0.001, ****p < 0.0001 using one-way ANOVA with Dunnett’s post hoc test).
(§5) Source data are provided as a Source Data file. […]
(§6) Relative viability(%) XQ2B
(§7) Supplementary Fig. 7. […] (a) THP1 cells were exposed to the indicated doses of XQ2 or XQ2B for 48h. The cell viability was measured by CCK8 assay. […]
(§8) Data are representative of three independent experiments with similar results in (e), or three independent experiments in (a -d, f, g) . (Data are presented as mean ± SD, n = 3 independent samples in (a-d, f, g), ns, not significant, **p < 0.01, ***p < 0.001, ****p < 0.0001 using one-way ANOV A with Dunnett’s post hoc test). Source data are provided as a Source Data file.

THP1 cells = assay: in vitro; conditions: for Cell viability (Fig. S7a): human, THP1 cells
Method: as §2, §3, §4, §5, §6, §7, §8

HSV-1 in THP1 cells = assay: HSV-1(UL5) mRNA by qPCR (virus infection of cells); assay type: cell-based, herpes simplex virus-1; parameters: key to HSV-1(UL5) mRNA, qPCR, Fig. 5d / HSV-1(UL5) mRNA (Fig. S8e): relative mRNA level, target CT normalized to GAPDH CT
Method: as §1

CC(C)C[C@@H]1NC(=O)[C@H](CCCNC(=N)N)NC(=O)[C@H](C(C)C)NC(=O)[C@@H]2CCCN2C(=O)[C@@H](Cc2ccccc2)NC(=O)[C@H](CC(C)C)NC(=O)[C@H](CCCNC(=N)N)NC(=O)[C@H]([C@@H](C)O)NC(=O)[C@H](C)NC(=O)[C@@H](Cc2ccccc2)NC1=O [XQ2B] (cyclo([dF]ATRL[dF]PVRL))
IFNB1 mRNA level (Fig. S7c) ([1]; Poly(I:C), XQ2B): 1527.76 and 1720.01 and 1878.29
poly (I: C)-induced IFNB1 expression ([1]; THP1, 10 μM): no significant effect on signaling induced by STING agonists or TLR3 agonist such as poly (I: C)
ISD-induced IFNB1 and IL6 expression in PBMCs (primary human PBMCs; 10 μM): significantly inhibit the activation of cGAS induced by ISD
IFNB1 mRNA (Fig. S7f) (primary human PBMCs; PBMCs, ISD+XQ2B): 841.807 and 913.377 and 771.009
IL6 mRNA (Fig. S7f) (primary human PBMCs; PBMCs, ISD+XQ2B): 1185.13 and 642.626 and 1199.71
Cxcl10 mRNA (Fig. S7g) ([2]; ISD+XQ2B): 1166.92 and 1221.79 and 1328.72
Ifnb1 mRNA (Fig. S7g) ([2]; ISD+XQ2B): 1896.14 and 2591.99 and 2490
Il6 mRNA (Fig. S7g) ([2]; ISD+XQ2B): 1526.53 and 1838.42 and 1588.85
Cxcl10 mRNA (Fig. S7g) ([2]; XQ2B alone): 2.509 and 2.275 and 2.115
Ifnb1 mRNA (Fig. S7g) ([2]; XQ2B alone): 1.291 and 1.1996 and 1.38
viability at 48 h, 0.195312 µM (in vitro): 100%
viability at 48 h, 0.390625 µM (in vitro): 98%
viability at 48 h, 0.78125 µM (in vitro): 101%
viability at 48 h, 1.5625 µM (in vitro): 108%
viability at 48 h, 3.125 µM (in vitro): 97.6%
viability at 48 h, 6.25 µM (in vitro): 113%
viability at 48 h, 12.5 µM (in vitro): 100%
viability at 48 h, 25 µM (in vitro): 104%
viability at 48 h, 50 µM (in vitro): 68.2%
viability at 48 h, 100 µM (in vitro): 3.61%
viability at 48 h, 200 µM (in vitro): 3.63%
viability at 48 h, 400 µM (in vitro): 3.62%
cytotoxicity (THP1 cells): less cytotoxicity
IC50 (THP1 cells; 48 h): 89.5 ± 31.9 µM
Cell viability (Fig. S7a) (THP1 cells; 48 h, 0.195312 µM): 104.965
Cell viability (Fig. S7a) (THP1 cells; 48 h, 0.390625 µM): 103.952
Cell viability (Fig. S7a) (THP1 cells; 48 h, 100 µM): 3.53
Cell viability (Fig. S7a) (THP1 cells; 48 h, 200 µM): 3.549
Cell viability (Fig. S7a) (THP1 cells; 48 h, 400 µM): 3.541
HSV-1 infection of THP1 cells, HSV1(UL5) mRNA (HSV-1 in THP1 cells; 10 μM): facilitated HSV-1 infection
HSV-1(UL5) mRNA (Fig. S8e) (HSV-1 in THP1 cells; HSV-1(1×104) 24h): 2.313 and 2.598 and 2.002
HSV-1(UL5) mRNA (Fig. S8e) (HSV-1 in THP1 cells; HSV-1(2×104) 24h): 4.745 and 4.808 and 4.905
